Data from article PMC9243654 (Frontiers in Nutrition, 2022).
Like-named read-outs stand apart in the source and are kept apart here. Blank lines part the entries; values can stand above or below the compound they belong to.

Key:
[1] = in vitro
Procedure: The PAMPA-BBB assay was conducted according to the methodology followed by Di et al., with some modifications as described below ([15]). First, the BBB solution was prepared by dissolving 8 mg of PBL and 4 mg of cholesterol in 600 μl of n-dodecane. The initial donor solution was prepared by mixing 1 ml of extract (10 mg ml^−1 in EtOH) with 1 ml of buffer (PBS, pH = 7.4, 10 mM). The filter membrane of the donor plate was carefully coated with 5 μl of BBB solution. The acceptor plate was filled with 350 μl of buffer, and the donor plate was carefully assembled over the acceptor plate like a “sandwich.” Finally, the donor plate was filled with 350 μl of donor solution, covered, and incubated for 4 h at 37°C in the dark. After incubation time, 300 μl of the solution was taken from both plates, transferred to separate vials, and dried in the SpeedVac system at 40°C and 13 mbar pressure. Dried acceptor and donor solution were dissolved in 50 μl of pure EtOH before subjecting to UHPLC-Q-TOF-MS analysis. Permeability across in vitro BBB of the bioactive compound was measured according to Equation (1) ([25]), with some modifications in concentration rates.
(1) Pe=-ln[1-CA(t)/Ce]/A^*(1/VD+1/VA)^*t
Cequilibrium was calculated according to the following equation ([2]):
(2) Cequilibrium=[CD(t)*VD+CA(t)*VA]/(VD+VA)

[2] = cited from earlier work
[3] = ref PubChem database, cited from earlier work
[4] = PAMPA, pH 7.4, PAMPA-BBB log Pe (cm s−1)
[5] = compounds from Ginkgo biloba L. extract, ref Könczöl et al. ([69])
[6] = compounds of RSFE extract, octanol-water partition coefficient
[7] = compound within LPLE (Nothofagus pumilio, lenga PLE extract), classes based on Könczöl et al.
[8] = compounds identified in LPLE extract
[9] = compound within RSFE extract, 4 h, 37°C, PBS pH 7.4
[10] = PAMPA, pH 7.4, PAMPA-BBB log Pe (cm s−1), compound within ASFE extract, 4 h, 37°C, PBS pH 7.4
[11] = PAMPA, pH 7.4, PAMPA-BBB log Pe, compound within LPLE (Nothofagus pumilio, lenga PLE extract), N.D = not detected in acceptor

Compound: COc1cc(-c2oc3cc(O)cc(O)c3c(=O)c2O)ccc1O [Isorhamnetin]
Cross BBB potential ([1]; PAMPA): +++ (key: -: not detected in acceptor; +: log Pe > −6.5; ++: log Pe > −5.5; +++: log Pe > −4.5)
Papp [1, 4]: 49 ×10⁻⁶ cm/s
PAMPA-BBB logPe [2, 5]: −5.46
Log P [3, 6]: 1.9

Compound: COc1ccc([C@@H]2CC(=O)c3c(O)cc(O[C@@H]4O[C@H](CO[C@@H]5O[C@@H](C)[C@H](O)[C@@H](O)[C@H]5O)[C@@H](O)[C@H](O)[C@H]4O)cc3O2)cc1O [Hesperidin]
Cross BBB potential ([1]; compound within ASFE extract): -
Cross BBB potential [1, 7]: -
Log P [3, 8]: −1.1
Log P ([3]; compounds of ASFE extract): −1.1

Cross BBB potential ([1]; PAMPA): +++
PAMPA-BBB log Pe (cm s−1) ([1]; PAMPA, 4 h, pH 7.4): −4.06 cm s−1
Compound: O=C(O)C[C@H]1CCC(=O)[C@@H]1C/C=C\CCO [12- Hydroxyjasmonic acid]
Log P [3, 6]: 0.4

Compound: C[C@]12C[C@@H](O)[C@H]3[C@@H](CC[C@]4(O)C[C@@H](O)CC[C@]34CO)[C@@]1(O)CC[C@@H]2c1ccc(=O)oc1 [11α,19-dihydroxytelocinobufagin]
Cross BBB potential ([1]; compound within KD extract): -
Log P ([3]; compounds of KD extract): 3.63

Compound: O=c1cc(-c2ccc(O)cc2)oc2cc(O)cc(O)c12 [Apigenin]
Papp [1, 4]: 26.3 ×10⁻⁶ cm/s
Cross BBB potential ([1]; compound within RSFE extract): ++ (log Pe > −5.5)
PAMPA-BBB logPe [2, 5]: −5.35

Cross BBB potential ([1]; compound within ASFE extract): -
Cross BBB potential [1, 7]: -
Compound: COc1cc(/C=C/C(=O)OC(C(=O)O)C(O)C(=O)O)ccc1O (stereo not shown) [Fertaric acid]
Log P [3, 8]: 0.4
Log P ([3]; compounds of ASFE extract): 0.4

Cross BBB potential [1, 7]: -
Compound: O=C(O)c1cc(O)c(O)c(Oc2c(O)c(=O)c3oc(O)c4cc(O)c(=O)c5oc(O)c2c3c45)c1 [Sanguisorbic acid dilactone]
Log P [3, 8]: −0.4
Log P ([3]; compounds of ASFE extract): −0.4

Compound: C=C(C)[C@@H]1CC[C@]2(C(=O)O)CC[C@]3(C)[C@H](CC[C@@H]4[C@@]5(C)CC[C@H](O)[C@@](C)(CO)[C@@H]5CC[C@]43C)[C@@H]12 [Anemosapogenin]
Cross BBB potential ([1]; PAMPA): ++ (key: -: not detected in acceptor; +: log Pe > −6.5; ++: log Pe > −5.5; +++: log Pe > −4.5)
PAMPA-BBB log Pe (cm s−1) ([1]; PAMPA, pH 7.4): −5.26 cm s−1
Log P [3, 6]: 7.5

Cross BBB potential [1, 7]: -
Compound: OC[C@H]1O[C@@H](Oc2cc(O)cc(/C=C/c3ccc(O)cc3)c2)[C@H](O)[C@@H](O)[C@@H]1O [Piceid]
Log P [3, 8]: 1.7
Log P ([3]; compounds of ASFE extract): 1.7

Cross BBB potential ([1]; PAMPA): ++
PAMPA-BBB log Pe (cm s−1) ([1]; PAMPA, 4 h, pH 7.4): −4.62 cm s−1
Compound: Notohamosine B
Log P [3, 6]: 5.6

Compound: Desdimethyl-octahydro-iso- cohumulone
Cross BBB potential ([1]; compound within RSFE extract): +++ (log Pe > −4.5)
PAMPA-BBB log Pe (cm s−1) [1, 9]: −4.30 cm s−1
Log P [3, 6]: 3.8

Cross BBB potential ([1]; PAMPA): +
Papp at 4 h [1, 4]: 0.229 ×10⁻⁶ cm/s
Compound: C=C(C)[C@@H]1CC[C@]2(C(=O)O)CC[C@]3(C)[C@H](CC[C@@H]4[C@@]5(C)CC[C@H](O)C(C)(C)[C@@H]5CC[C@]43C)[C@@H]12 [Betulinic acid]
Log P [3, 6]: 8.2

Compound: CC(=O)O[C@@H]1C[C@H](O)C[C@@]2(O)CC[C@@H]3[C@@H]4[C@@H](C[C@]5(C)[C@@H](c6ccc(=O)oc6)CC[C@]35O)O[C@H](O)[C@]412 [Bryophyllin B]
Cross BBB potential ([1]; compound within KD extract): -
Log P ([3]; compounds of KD extract): 0.6

Compound: O=C(/C=C/c1ccc(O)c(O)c1)c1ccc(O)cc1O [Butein]
Papp at 4 h [1, 10]: 2.19 ×10⁻⁶ cm/s
Papp at 4 h [1, 11]: 16.6 ×10⁻⁶ cm/s
Cross BBB potential ([1]; compound within ASFE extract): + (log Pe > −6.5)
Cross BBB potential [1, 7]: ++ (log Pe > −5.5)
Log P [3, 8]: 2.8
Log P ([3]; compounds of ASFE extract): 2.8

Cross BBB potential ([1]; PAMPA): ++
PAMPA-BBB log Pe (cm s−1) ([1]; PAMPA, 4 h, pH 7.4): −5.00 cm s−1
Compound: CC(C)C1=Cc2ccc3c(c2C(=O)C1=O)CCCC3(C)C [Rosmariquinone]
Log P [3, 6]: 4.9

Compound: Kalandaigremoside F
Cross BBB potential ([1]; compound within KD extract): -
Log P ([3]; compounds of KD extract): 7.2

Compound: O=C(O)[C@]1(O)C[C@@H](O)[C@@H](O)[C@H](O)C1 [Quinic acid]
Cross BBB potential ([1]; PAMPA): -
Papp at 4 h ([1]; PAMPA, pH 7.4, PAMPA-BBB log Pe (cm s−1), compound within RSFE extract, 4 h, 37°C, PBS pH 7.4): 6.03 ×10⁻⁶ cm/s
Papp at 4 h ([1]; PAMPA, pH 7.4, PAMPA-BBB log Pe (cm s−1), compound within T33 extract, 4 h, 37°C, PBS pH 7.4): 3.63 ×10⁻⁶ cm/s
Log P ([3]; compounds of T33 extract): −2.4

Compound: O=c1c(O)c(-c2ccc(O)cc2)oc2cc(O)cc(O)c12 [Kaempferol]
Papp at 4 h [1, 10]: 2.29 ×10⁻⁶ cm/s
Papp at 4 h ([1]; PAMPA, pH 7.4, PAMPA-BBB log Pe (cm s−1), compound within KD extract, 4 h, 37°C, PBS pH 7.4): 14.8 ×10⁻⁶ cm/s
Papp at 4 h [1, 11]: 21.4 ×10⁻⁶ cm/s
PAMPA-BBB logPe ([2]; PAMPA): −5.13
Log P [3, 8]: 1.9
Log P ([3]; compounds of ASFE extract): 1.9
Log P ([3]; compounds of KD extract): 1.9

Compound: C[C@]12CC[C@H]3[C@@H](CC[C@]4(O)C[C@@H](O)C[C@@H](O)[C@]34C=O)[C@@]1(O)CC[C@@H]2c1ccc(=O)oc1 [Bersaldegenin]
Cross BBB potential ([1]; compound within KD extract): -
Log P ([3]; compounds of KD extract): 0.2

Compound: CC(C)c1cc2c(cc1O)C1(C)CCC(=O)C(C)(C)C1CC2 (stereo not shown) [Hinokione]
Cross BBB potential ([1]; compound within RSFE extract): -
Log P [3, 6]: 4.9

Cross BBB potential ([1]; PAMPA): ++
PAMPA-BBB log Pe (cm s−1) ([1]; PAMPA, 4 h, pH 7.4): −5.46 cm s−1
Compound: Caffeoylshikimic acid
Log P ([3]; compounds of T33 extract): 0.9

Compound: COc1cc(/C=C/C(=O)O)cc(OC)c1O [Sinapic acid]
Cross BBB potential ([1]; compound within ASFE extract): -
Cross BBB potential ([1]; compound within KD extract): -
Cross BBB potential ([1]; compound within T33 extract): -
Log P [3, 8]: 1.5
Log P ([3]; compounds of ASFE extract): 1.5
Log P ([3]; compounds of KD extract): 1.5
Log P ([3]; compounds of T33 extract): 1.5

Compound: O=C(O)c1ccc(O)cc1 [p-salycilic acid]
Cross BBB potential ([1]; compound within RSFE extract): +++ (log Pe > −4.5)
PAMPA-BBB log Pe (cm s−1) [1, 9]: −4.18 cm s−1
Cross BBB potential ([1]; compound within T33 extract): ++ (log Pe > −5.5)
PAMPA-BBB log Pe (cm s−1) ([1]; compound within T33 extract, 4 h, 37°C, PBS pH 7.4): −4.75 cm s−1
Log P [3, 6]: 1.6

Compound: COc1ccc2c3c1O[C@H]1C[C@@H](O)C=C[C@@]31CCN(C)C2 [galantamine, reference compound]
logPe (cm s^−1) ([2]; therapeutic drug for comparison, ref [70]): –5.35 ± 0.02 cm s^−1
